# Results: paper PMC10165273, “Itch receptor MRGPRX4 interacts with the receptor activity–modifying proteins” (The Journal of Biological Chemistry, 2023)
# pEC50: −log10 of the molar value. Several values for one entry are separate records, joined by “and”; a condition that tells them apart may be missing. Identical values can stand only once. Like-named read-outs stand apart in the source and are kept apart here.
# Columns and labels:
# [1] = molecular target: T1, MRGPRX4 + RAMP3 (Homo sapiens, UniProt Q96LA9); experiment: IP1 accumulation, MRGPRX4 coexpressed with RAMP3; format: cell-based; design: key to IP1 Basal / response to agonist, X4:ramp3.I:0.25 / response to agonist, X4:ramp3.I:0.5 / response to agonist, X4:ramp3.I:1: % IP1; unstimulated mock = 0%, fully stimulated MRGPRX4 = 100%; conditions: for pEC50: read-out: IP1 EC50; for Emax: read-out: IP1 Emax; for IP1 accumulation (normalized): MRGPRX4+RAMP3 1pg 1:1, Supplementary Figure 5f, 5g
# T1 construct: expressed in transfected cells; host or cells: HEK293T
# T1 sequence (Q96LA9 whole entry): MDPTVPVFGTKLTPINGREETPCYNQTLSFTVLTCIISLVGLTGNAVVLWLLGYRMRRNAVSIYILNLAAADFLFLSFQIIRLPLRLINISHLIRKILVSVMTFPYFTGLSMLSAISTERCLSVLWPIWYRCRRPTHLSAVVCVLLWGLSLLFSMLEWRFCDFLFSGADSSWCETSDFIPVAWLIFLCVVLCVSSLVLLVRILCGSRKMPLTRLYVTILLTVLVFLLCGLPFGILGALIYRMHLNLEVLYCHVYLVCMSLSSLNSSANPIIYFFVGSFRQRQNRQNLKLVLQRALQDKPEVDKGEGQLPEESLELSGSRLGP
# Method: HEK293T cells were transfected with 1 pg/cell of MRGPRX4 DNA, and the amount of DNA was kept constant at 2 pg/cell with pcDNA3.1(+) empty vector, unless otherwise specified. Twenty four hours after transfection, IP1 assay was performed as previously described ([51]). When applicable, cells were treated with 1 μM YM254890 (YM) or different concentrations of U73122 for 1 h prior to addition of agonist or buffer. After incubation for 2 h, HTRF reagents and IP1 calibration standards were added and incubated for 2 h in the dark at room temperature. Time-resolved fluorescence signals were read on the BioTek Synergy NEO-TRF Hybrid multi-mode reader (BioTek Instruments). All data were carried out in three independent experiments with three technical replicate each.
# For RAMP DNA titration assay, HEK293T cells were cotransfected with a constant amount of 1 pg/cell of FLAG-MRGPRX4-GFP10-1D4 to which a serial dilution of 1, 0.75, 0.5, 0.25, or 0 pg/cell of each HA-RAMP-OLLAS was added. For a homogenous transfection of MRGPRX4, a master mix of MRGPRX4 DNA was made prior to addition of the RAMP DNA. […]
# Data reduction, standard calibration, and transformation of HTRF data were performed as previously described ([51]). Normalized IP1 values were calculated relative to the unstimulated mock-transfected cells (set to 0%) and fully stimulated MRGPRX4 (alone if applicable) (set to 100%).
# [2] = tested on: mock-transfected HEK293T cells; experiment: IP1 accumulation, mock-transfected cells; format: cell-based, human; design: IP1 Basal / IP1 span / IP1 Emax / IP1 accumulation, dose-response (Figure 1a) / IP1 accumulation with YM (Figure 1c) / IP1 accumulation: unit not given here; conditions: for IP1 accumulation, dose-response (Figure 1a): pcDNA (mock), individual replicates; for IP1 accumulation: mock, Fig S3a-c
# [3] = molecular target: T1, MRGPRX4 + RAMP3; experiment: IP1 accumulation, MRGPRX4 coexpressed with RAMP3; format: cell-based; design: key: % IP1; unstimulated mock = 0%, fully stimulated MRGPRX4 = 100%; conditions: Figure 4c-f; agonist 100µM; X4:ramp3 1:2; MRGPRX4 = 100
# [4] = MRGPRX4 + RAMP3 0.25 pg (Fig. S3), normalized per agonist
# [5] = MRGPRX4 + RAMP3 0.5 pg (Fig. S3), normalized per agonist
# [6] = MRGPRX4 + RAMP3 1 pg (Fig. S3), normalized per agonist
# [7] = MRGPRX4 + RAMP3 2 pg (Fig. S3), normalized per agonist
# [8] = Tet-On MRGPRX4:RAMP3 Ratio 1:0.5 (Fig. S5F)
# [9] = Tet-On MRGPRX4:RAMP3 Ratio 1:0.75 (Fig. S5F)
# [10] = Tet-On MRGPRX4:RAMP3 Ratio 1:1 (Fig. S5F)
compound,measurement,setting,value
CC(C)[C@H]1CC[C@H](C(=O)N[C@H](Cc2ccccc2)C(=O)O)CC1 [Nateglinide],"response to agonist, X4:ramp3.I:0.5","[1]; Figure 4c-f, agonist 100µM, X4:ramp3 1:0.5, MRGPRX4 = 100",74.9289 and 71.6542
same,"response to agonist, X4:ramp3.I:1","[1]; Figure 4c-f, agonist 100µM, X4:ramp3 1:1, MRGPRX4 = 100",57.9146 and 58.6922
same,IP1 Basal,[1]; [4],18.35
same,IP1 span (top minus basal of the concentration-response fit),[1]; [4],72%
same,pEC50,[1]; [4],5.13
same,Emax,[1]; [4],90.3%
same,IP1 Basal,[1]; [5],17.78
same,IP1 span (top minus basal of the concentration-response fit),[1]; [5],70.5%
same,pEC50,[1]; [5],4.98
same,Emax,[1]; [5],88.3%
same,IP1 Basal,[1]; [6],13.65
same,IP1 span (top minus basal of the concentration-response fit),[1]; [6],76.8%
same,pEC50,[1]; [6],4.92
same,Emax,[1]; [6],90.4%
same,IP1 Basal,[1]; [7],11.70
same,IP1 span (top minus basal of the concentration-response fit),[1]; [7],79.7%
same,pEC50,[1]; [7],4.84
same,Emax,[1]; [7],91.3%
same,IP1 Basal,[1]; [8],10.08
same,IP1 span (top minus basal of the concentration-response fit),[1]; [8],83.3%
same,pEC50,[1]; [8],5.14
same,Emax,[1]; [8],93.4%
same,IP1 Basal,[1]; [9],8.392
same,IP1 span (top minus basal of the concentration-response fit),[1]; [9],72.2%
same,pEC50,[1]; [9],5.15
same,Emax,[1]; [9],80.5%
same,IP1 Basal,[1]; [10],9.885
same,IP1 span (top minus basal of the concentration-response fit),[1]; [10],71.3%
same,pEC50,[1]; [10],5.06
same,Emax,[1]; [10],81.2%
same,IP1 accumulation (normalized),[1]; log [nateglinide] (M) -4,57.5355 and 90.9736 and 62.9483
same,IP1 accumulation (normalized),[1]; log [nateglinide] (M) -4.69897,50.3774 and 62.0079 and 49.4001
same,IP1 accumulation (normalized),[1]; log [nateglinide] (M) -5.39794,23.5136 and 36.2384 and 24.8216
same,IP1 accumulation (normalized),[1]; log [nateglinide] (M) -6.09691,12.0843 and 16.5706 and 10.8044
same,IP1 accumulation (normalized),[1]; log [nateglinide] (M) -7.49485,6.988 and 11.3646 and 7.305
same,"IP1 accumulation, dose-response (Figure 1a)",[2]; log [agonist] (M) -4,0.2271 and 0.3078 and 0.4629 and -0.5571 and 0.3306 and 0.0456 and 0.8656 and -0.04322 and 0.1347 and -0.9843 and -0.02794 and -0.8867
same,"IP1 accumulation, dose-response (Figure 1a)",[2]; log [agonist] (M) -4.95424,0.4814 and 0.1593 and 0.9731 and 0.2847 and 0.3905 and 0.01267 and 0.9879 and -0.1469 and 0.1915 and -0.5702 and -0.3086 and -0.9418
same,"IP1 accumulation, dose-response (Figure 1a)",[2]; log [agonist] (M) -5.90849,0.6831 and 0.2899 and 0.8301 and 0.7307 and 0.1868 and 0.3562 and 0.4874 and 0.05414 and 0.7331 and -0.7448 and -0.08445 and -0.6788
same,"IP1 accumulation, dose-response (Figure 1a)",[2]; log [agonist] (M) -6.86273,1.046 and 0.7412 and 1.424 and 1.025 and 0.6018 and 0.6703 and 1.266 and 0.6126 and 1.453 and 0.03754 and 0.2747 and 0.1665
same,IP1 accumulation,[2]; log [Nateglinide] (M) -4,1.284 and 1.14
same,IP1 accumulation,[2]; log [Nateglinide] (M) -4.69897,0.9537 and 0.9999 and 1.07
same,normalized IP1 accumulation,"[2]; pcDNA, log [agonist] (M) -5.39794",0.47 and 0.5436 and 0.4562
same,"response to agonist, X4:ramp3.I:2",[3],54.9628 and 57.8528
